For data set [1], the system named is Schleimbildung und Algenbewuchs. The data set is described as follows: Efficacy in outdoor cooling circuits, visual assessment of growth on the plates. The following applies: phosphonium compound alone, same concentration and frequency (21 ppm twice a week); stated conditionally ('würde'). The source says:
Untersuchung der Wirksamkeit in Kühlkreisläufen
Die im Freien stehenden (natürliche Sonneneinstrahlung, Staubeinfall, Witterungseinflüsse) Kühlkreisläufe bestanden aus: • a) einem Kunststoffass mit einem Volumen von 113 I und einem Überlauf • b) einer Pumpe (21 1/min bei 3 m Förderhöhe) • c) einem Kühlturm mit Oregon-(Splint), Oregon-(Kernholz), Eiche-, Fichte-, Asbestzement- und PVC-Platte
Die Frischwasser-Zufuhr war so eingestellt, dass der Spritz- und Verdunstungsverlust ausgeglichen wurde und die Biocide in 24 h ungefähr 1:2 verdünnt wurden.
Die Kühlkreisläufe sind durch den natürlichen Staubeinfall und nicht durch gezielte Beimpfung infiziert.
Zur Verhinderung der Schleimbildung und des Algenwuchses wurde der Kühlkreislauf mit 21 ppm 2mal/Woche einer Lösung von 45% der Verbindung 17 und 5% der Verbindung 13 in Wasser behandelt.
Ausgewertet wurde der Versuch durch visuelle Beobachtung des Bewuchses auf den Platten.
Der unbehandelte Kreislauf zeigte schon nach 4 Wochen den ersten Algenbewuchs, die Hölzer waren nach 5 Monaten verschleimt und mit einer dicken Algenschicht überzogen. Der mit 21 ppm 2mal/Woche behandelte Kreislauf zeigte keinerlei Anzeichen von beginnender Schleimbildung und Algenbewuchs.

Where two headings read alike, the source gives them in different places.

Regarding `CCCCCCCCCCCC[P+](CCCC)(CCCC)CCCC.[Cl-]` [Verbindung 16, Tri-n-butyl-n-dodecyl-phosphoniumchlorid], where the note is “Bsp. 6: as Beispiel 1, P compound 16 with Sn compound 2”, the “P-Verbindung (Mol-%) Endkonzentration” value is 17,9 Mol-%.

`CCCCCCCCCCCCCC[P+](CCCC)(CCCC)CCCC.[Br-]` [Verbindung 19, Tri-n-butyl-n-tetradecylphosphoniumbromid]: the “P-Verbindung (Mol-%) Endkonzentration” value (Bsp. 7: as Beispiel 1, P compound 19 with Sn compound 2) was 15,9 Mol-%.

`CCCCCCCCCCCCCC[P+](CCCC)(CCCC)CCCC.[Cl-]` [Verbindung 17, Tri-n-butyl-tetradecyl-phosphoniumchlorid]: the “Unterdrückung des Algenbewuchses” value in data set [1] is recorded as “nicht gänzlich unterdrücken”. In addition, the “Endkonzentration der P-Verbindung” value (Beispiel 2: with 3,8 Mol-% of Vrb. 3 dissolved) came out at 15.3 Mol-% and the “Endkonzentration der P-Verbindung” value (Beispiel 3: with 2,9 Mol-% of Vrb. 2 dissolved) is recorded as 16,7 Mol-%. The “P-Verbindung (Mol-%) Endkonzentration” value (Bsp. 4: as Beispiel 1, P compound 17 with Sn compound 8) is 13,1 Mol-%.

With `CCCCCCCCCC[P+](CCCC)(CCCC)CCCC.[Cl-]` [Verbindung 18, Tri-n-butyl-n-decyl-phosphoniumchlorid], the “P-Verbindung (Mol-%) Endkonzentration” value (Bsp. 5: as Beispiel 1, P compound 18 with Sn compound 2) is 19,2 Mol-%.

As to Tri-n-butylzinnaphtenat [Verbindung 8], the “Sn-Verbindung (Mol-%) Endkonzentration” value (Bsp. 4: as Beispiel 1, Sn compound 8 in solution of P compound 17) was 7,1 Mol-%.
